Measured values published in patent US10167299B2, “1-(3-aminopropyl) substituted cyclic amine compounds, preparation method therefor, and pharmaceutical compositions and uses thereof” (SHANGHAI INSTITUTE OF MATERIA MEDICA, CHINESE ACADEMY OF …, priority 2013, dated 2019).
pIC50: −log10 of the molar value. Converted amounts (≈) assume the structure as drawn. Read-outs that look alike come from different tables or passages of the source.

Tests used:
[1] = tested on: Salmonella typhimurium strain TA100; test: Bacterial reverse mutation assay TA100 (-S9); type: cell-based; conditions: TA100, -S9, positive control 1300 μg/dish
Experimental: (§1) The mutagenic effects of compounds 18 and 22 of the present invention on Salmonella typhimurium strains TA98 and TA100 in non-metabolic activation (-S9) condition were determined. Two strains, TA98 and TA100 were chosen in bacterial reverse mutation assay for compounds 18 and 22. 9 doses containing […], negative and positive controls were set in experiments. 3 dishes were used for each dose. The experiment was carried out under -S9 condition.

[2] = tested on: CCR5 protein; test: Thermal stability of protein test (CPM-assay); type: binding; conditions: for Tm (° C.): thermal stability of CCR5 protein with compound, CPM dye
Excerpt: Experimental theory: many cysteines are present in CCR5 protein sequence. Cysteines located in loop region form disulfide bonds to stabilize the tertiary structure of the protein. Some free cysteines in reduced state are located in the transmembrane region. Under excitation by incident light of 387 nm, the combination of free sulfhydryl and fluorescent dye CPM can emit excitation light of 436 nm. […] The free sulfhydryls originally located in the transmembrane region expose and combine with the fluorescent dye. And then the detector will detect changes in signal enhancement. Therefore, the thermal stability of membrane proteins can be determined according to the temperature (Tm) at the midpoint of changes in signal intensity.
Experimental steps: Upon preliminary purification, the obtained protein solution was transferred into a small concentration tube (100 kd, 500 ul) for concentration (1000 rcf, 12 min, 4° C.). After centrifugation, the concentration tube was taken out and flicked to prevent protein coagulation due to high local concentration. The final concentrated volume was about 50 μl. 117 μl of purified solution (volume is suitable to make the total volume up to 120 μl), 1 μl fluorescent dye cpm (in-house prepared) and 2 μl of concentrated protein solution (the amount of added protein is 3-5 μg according to the calculated concentration of the protein solution and the concentrated volume) were added to 2 ml Ependorf tube and incubated at room temperature for 20 min. And then the mixture was added to the cuvette (Qwan) and put in the testing equipment Cary, wherein the surface of the frosted glass faced out. The temperature was set in the range of 4-90° C. with 1° C. increase per minute and the program was run. Tm value can be obtained by processing the data and graph with a mapping software and can be used to compare the difference of protein thermal stability under different conditions.

[3] = tested on: HIV-1SF162 virus strain; test: Inhibition activity on TZM-bl cells infected with HIV-1SF162; conditions: for EC50: Human immunodeficiency virus 1, TZM-bl; for therapeutic index (TI): TZM-bl cells infected with HIV-1SF162
[4] = biological target: CCR5 (Homo sapiens (Human), UniProt P51681); test: Calcium flux inhibition experiment; type: cell-based; conditions: for pIC50: HEK293/CCR5-Gα16 cell line, calcium flux, read-out: CCR5 IC50; for calcium influx inhibition effect in words, versus positive control compounds: conclusion from Table 1
[5] = Cytotoxicity (CC50) in TZM-bl cells; type: cell-based; conditions: human
[6] = biological target: hERG (Homo sapiens (Human), UniProt Q12809)
Experimental: CHO-hERG cells which have been incubated overnight were added with sample buffer and incubated for 90 minutes at room temperature in darkness.
The sample buffer was removed and assay buffer was added.
The compound is added to the cell plate and incubated for 20 minutes in darkness.
Cell plate was placed into FDSS. The fluorescence signal was recorded every second for 10 seconds. Exciting buffer was added to the cells at the 10th second and the fluorescence signal was recorded every second for 180 seconds

[7] = tested on: Salmonella typhimurium strain TA98; test: Bacterial reverse mutation assay TA98 (-S9); type: cell-based; conditions: TA98, -S9, positive control 20 μg/dish
Experimental: as §1

[8] = TZM-bl cells (Table 3), read-out: CC50

Chain of CCR5 (P51681 whole entry): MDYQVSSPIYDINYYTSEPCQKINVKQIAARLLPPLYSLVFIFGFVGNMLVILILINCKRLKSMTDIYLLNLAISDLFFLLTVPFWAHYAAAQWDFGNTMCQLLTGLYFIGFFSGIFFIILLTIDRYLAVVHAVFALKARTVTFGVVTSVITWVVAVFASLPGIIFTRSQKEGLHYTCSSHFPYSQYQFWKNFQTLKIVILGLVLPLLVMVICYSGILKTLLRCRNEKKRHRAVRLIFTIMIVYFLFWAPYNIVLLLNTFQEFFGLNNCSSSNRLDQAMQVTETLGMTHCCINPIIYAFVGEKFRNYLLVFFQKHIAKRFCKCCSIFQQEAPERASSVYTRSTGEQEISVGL
Chain of hERG (Q12809 whole entry): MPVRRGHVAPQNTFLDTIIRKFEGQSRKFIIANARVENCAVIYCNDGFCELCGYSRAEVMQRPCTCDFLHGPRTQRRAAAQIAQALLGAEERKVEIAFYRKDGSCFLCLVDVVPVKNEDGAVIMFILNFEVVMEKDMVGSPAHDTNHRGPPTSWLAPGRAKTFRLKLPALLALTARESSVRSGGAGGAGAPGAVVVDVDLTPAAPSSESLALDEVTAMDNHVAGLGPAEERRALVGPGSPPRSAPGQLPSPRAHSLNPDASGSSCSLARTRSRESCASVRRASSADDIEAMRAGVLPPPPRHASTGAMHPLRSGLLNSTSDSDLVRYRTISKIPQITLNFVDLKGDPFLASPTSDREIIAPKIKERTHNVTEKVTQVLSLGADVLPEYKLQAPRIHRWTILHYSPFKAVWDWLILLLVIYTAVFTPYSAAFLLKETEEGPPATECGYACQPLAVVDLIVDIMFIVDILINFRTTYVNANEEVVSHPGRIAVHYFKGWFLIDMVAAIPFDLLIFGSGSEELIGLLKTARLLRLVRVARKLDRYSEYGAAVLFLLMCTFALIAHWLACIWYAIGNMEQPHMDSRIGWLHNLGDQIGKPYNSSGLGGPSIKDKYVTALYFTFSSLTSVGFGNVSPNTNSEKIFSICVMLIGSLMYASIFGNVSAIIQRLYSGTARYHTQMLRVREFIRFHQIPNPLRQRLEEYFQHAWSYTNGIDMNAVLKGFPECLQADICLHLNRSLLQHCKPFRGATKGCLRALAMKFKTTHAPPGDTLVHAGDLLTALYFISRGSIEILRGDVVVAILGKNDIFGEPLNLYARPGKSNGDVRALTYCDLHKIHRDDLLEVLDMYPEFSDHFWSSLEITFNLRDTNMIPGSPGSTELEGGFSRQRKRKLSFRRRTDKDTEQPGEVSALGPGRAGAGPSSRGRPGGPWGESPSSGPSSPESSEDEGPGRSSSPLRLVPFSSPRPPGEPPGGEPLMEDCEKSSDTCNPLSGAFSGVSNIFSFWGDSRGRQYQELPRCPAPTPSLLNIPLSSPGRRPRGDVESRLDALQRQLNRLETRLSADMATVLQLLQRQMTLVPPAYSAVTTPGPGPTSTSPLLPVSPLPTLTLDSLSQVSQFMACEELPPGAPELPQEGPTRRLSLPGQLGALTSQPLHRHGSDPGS

Structure (SMILES) | number of revertant colonies (Mean ± SD) [1] | Tm (° C.) [2] | EC50 [3] | therapeutic index (TI) [3] | pIC50 [4] | CC50 [5, 8] | calcium influx inhibition effect in words, versus positive control compounds [4] | CC50 [5] | pIC50 [6] | protein stability effect in words, versus positive control compound ([2]; conclusion from Table 2) | cytotoxicity in vitro and therapeutic index in words, versus positive control compound ([3]; TZM-bl cells infected with HIV-1SF162, conclusion from Table 3) | number of revertant colonies (Mean ± SD) [7]
COS(C)(=O)=O [Methyl methanesulfonate, reference compound] | 1231 ± 146.1 |  |  |  |  |  |  |  |  |  |  | 
Cc1nnc(C(C)C)n1C1CCN(CC[C@H](NC(=O)C2CCCCC2)c2ccsc2)CC1 [Compound 23, N-[(1S)-3-[4-(3-isopropyl-5-methyl-4H-1,2,4-triazol-4-yl)-piperidin-1-yl]-1-(thiophen-3-yl)propyl]cyclohexane-1-carboxamide] |  | 63.90 °C | 0.06 µg/mL (≈ 0.131 µM) | >3332.78 | 7.56 | > 200 µg/mL |  |  |  |  |  | 
Cc1nnc(C(C)C)n1C1CCN(CC[C@H](NC(=O)C2CCC(F)(F)CC2)c2cccs2)CC1 [Compound 13, 4,4-difluoro-N-[(1S)-3-[4-(3-isopropyl-5-methyl-4H-1,2,4-triazol-4-yl)-piperidin-1-yl]-1-(thiophen-2-yl)propyl]cyclohexane-1-carboxamide] |  | 65.32 °C | 0.183 µg/mL (≈ 0.371 µM) | >1093.14 | 8.47 | > 100 µg/mL | better than the positive control compounds |  |  |  |  | 
Cc1nnc(C(C)C)n1C1CCN(CC[C@H](NC(=O)C2CCCCC2)c2cccnc2)CC1 [Compound 7, N-[(1S)-3-[4-(3-isopropyl-5-methyl-4H-1,2,4-triazol-4-yl)-piperidin-1-yl]-1-(pyridin-3-yl)propyl]cyclohexane-1-carboxamide] |  | 57.21 °C | 2.34 µg/mL (≈ 5.17 µM) | 50.31 | 7.45 | > 100 µg/mL |  |  |  |  |  | 
Cc1nnc(C(C)C)n1C1CCN(CC[C@H](NC(=O)C2CCC(F)(F)CC2)c2cccnc2)CC1 [Compound 5, 4,4-difluoro-N-[(1S)-3-[4-(3-isopropyl-5-methyl-4H-1,2,4-triazol-4-yl)-piperidin-1-yl]-1-(pyridin-3-yl)propyl]cyclohexane-1-carboxamide] |  | 57.31 °C |  |  | 7.53 |  |  |  |  |  |  | 
CCC1CCC(C(=O)N[C@@H](CCN2C3CCC2CC(n2c(C)nnc2C(C)C)C3)c2cccs2)CC1 (some centres unmarked) [Compound 19] |  | 69.20 °C | 0.00959 µg/mL (≈ 0.0187 µM) | 8940.56 | 7.67 |  |  | 85.7 µg/mL (≈ 168 µM) |  |  |  | 
Cc1nnc(C(C)C)n1C1CC2CCC(C1)N2CC[C@H](NC(=O)C1CCCCC1)c1ccsc1 (some centres unmarked) [Compound 24] |  | 62.31 °C |  |  | 7.35 |  |  |  |  |  |  | 
Cc1sc([C@H](CCN2C3CCC2CC(n2c(C)nnc2C(C)C)C3)NC(=O)C2CCC(F)(F)CC2)c(C)c1C (stereo partly drawn) [Compound 103, 4,4-difluoro-N-[(1S)-3-[exo-3-(3-isopropyl-5-methyl-4H-1,2,4-triazol-4-yl)-8-azabicyclo[3.2.1]octane-8-yl]-1-(3,4,5-trimethylthiophen-2-yl)propyl]cyclohexane-1-carboxamide] |  |  |  |  |  |  |  |  | 5.46 |  |  | 
Cc1nnc(C(C)C)n1C1CC2CCC(C1)N2CC[C@H](NC(=O)C1CCCC1)c1ccsc1 (stereo partly drawn) [Compound 26, N-[(1S)-3-[exo-3(3-isopropyl-5-methyl-4H-1,2,4-triazol-4-yl)-8-azabicyclo[3.2.1]octane-8-yl]-1-(thiophen-3-yl)propyl]cyclopentane-1-carboxamide] |  | 71.02 °C | 0.00558 µg/mL (≈ 0.0119 µM) | >35842.29 | 8.30 |  | better than the positive control compounds | > 200 µg/mL |  | comparable with the positive control compound | better than positive control compound | 
Cc1nnc(C(C)C)n1C1CCN(CCC(NC(=O)C2CCC(F)(F)CC2)c2cccs2)CC1 (centres unmarked) [Compound 1, 4,4-difluoro-N-[3-[4-(3-isopropyl-5-methyl-4H-1,2,4-triazol-4-yl)-piperidin-1-yl]-1-(thiophen-2-yl)propyl]cyclohexane-1-carboxamide] |  | 60.59 °C | 0.29 µg/mL (≈ 0.587 µM) | >340.14 | 7.44 | > 100 µg/mL |  |  |  |  |  | 
O=[N+]([O-])c1ccc2c(c1)Cc1ccccc1-2 [2-Nitroflucrene, reference compound] |  |  |  |  |  |  |  |  |  |  |  | 999 ± 145.2
Cc1nnc(C(C)C)n1C1CCN(CC[C@H](NC(=O)C2CCCC2)c2cccnc2)CC1 [Compound 9, N-[(1S)-3-[4-(3-isopropyl-5-methyl-4H-1,2,4-triazol-4-yl)-piperidin-1-yl]-1-(pyridin-3-yl)propyl]cyclopentane-1-carboxamide] |  | 61.32 °C | 1.81 µg/mL (≈ 4.13 µM) | 55.42 | 7.10 | > 100 µg/mL |  |  |  |  |  | 
CC(=O)NC(CCN1C2CCC1CC(n1c(C)nnc1C(C)C)C2)c1cccs1 (stereo not drawn) [Compound 4, N-[3-[exo-3-(3-isopropyl-5-methyl-4H-1,2,4-triazol-4-yl)-8-azabicyclo[3.2.1]octane-8-yl]-1-(thiophen-2-yl)propyl]acetamide] |  | 65.64 °C | 1.46 µg/mL (≈ 3.51 µM) | 29.29 | 7.82 | 42.8 µg/mL (≈ 103 µM) |  |  |  |  |  | 
CC(=O)NC(CCN1CCC(n2c(C)nnc2C(C)C)CC1)c1cccs1 (centres unmarked) [Compound 2, N-[3-[4-(3-isopropyl-5-methyl-4H-1,2,4-triazol-4-yl)-piperidin-1-yl]-1-(thiophen-2-yl)propyl]acetamide] |  | 65.23 °C | 0.326 µg/mL (≈ 0.837 µM) | >306.75 | 7.49 | > 100 µg/mL |  |  |  |  |  | 
Cc1nnc(C(C)C)n1C1CCN(CC[C@H](NC(=O)C2CCCCC2)c2cccs2)CC1 [Compound 15, N-[(1S)-3-[4-(3-isopropyl-5-methyl-4H-1,2,4-triazol-4-yl)-piperidin-1-yl]-1-(thiophen-2-yl)propyl]cyclohexane-1-carboxamide] |  | 64.30 °C | 0.316 µg/mL (≈ 0.69 µM) | >632.87 | 8.04 | > 200 µg/mL | comparable to the positive control compounds |  |  |  |  | 
Cc1nnc(C(C)C)n1C1CCN(CC[C@H](NC(=O)C2CCC(F)(F)CC2)c2ccsc2)CC1 [Compound 21, 4,4-difluoro-N-[(1S)-3-[4-(3-isopropyl-5-methyl-4H-1,2,4-triazol-4-yl)-piperidin-1-yl]-1-(thiophen-3-yl)propyl]cyclohexane-1-carboxamide] |  | 64.68 °C | 0.15 µg/mL (≈ 0.304 µM) | >1333.96 | 7.92 | > 200 µg/mL | comparable to the positive control compounds |  |  |  |  | 
Cc1nnc(C(C)C)n1C1CCN(CC[C@H](NC(=O)C2CCCC2)c2ccsc2)CC1 [Compound 25, N-[(1S)-3-[4-(3-isopropyl-5-methyl-4H-1,2,4-triazol-4-yl)-piperidin-1-yl]-1-(thiophen-3-yl)propyl]cyclopentane-1-carboxamide] |  | 62.31 °C | 0.168 µg/mL (≈ 0.379 µM) | >1190.41 | 7.42 | > 200 µg/mL |  |  |  |  |  | 
Cc1nnc(C(C)C)n1C1CC2CCC(C1)N2CC[C@H](NC(=O)C1CCCC1)c1cccnc1 (stereo partly drawn) [Compound 10, N-[(1S)-3-[exo-3-(3-isopropyl-5-methyl-4H-1,2,4-triazol-4-yl)-8-azabicyclo[3.2.1]octane-8-yl]-1-(pyridin-3-yl)propyl]cyclopentane-1-carboxamide] |  | 63.21 °C | 1.42 µg/mL (≈ 3.06 µM) | >70.42 | 7.44 |  |  | > 100 µg/mL |  |  |  | 
CC(=O)N[C@@H](CCN1C2CCC1CC(n1c(C)nc3c1CCN(C(=O)C(C)C)C3)C2)c1ccc(F)s1 (stereo partly drawn) [Compound 135, N-{(1S)-3-[(3-endo)-3-(5-isobutyryl-2-methyl-4,5,6,7-tetrahydro-1H-imidazo[4,5-c]pyridin-1-yl)-8-azabicyclo[3.2.1]octane-8-yl]-1-(5-fluorothiophen-2-yl)-propyl}acetamide] |  |  | 0.155 µg/mL (≈ 0.301 µM) | >1222.11 | 8.08 |  | comparable to the positive control compounds | > 200 µg/mL |  |  |  | 
